Our source for the MTX loading efficiency and IC50 values is patent US7045283B2, “Methods of high-throughput screening for internalizing antibodies” (The Regents of the University of California, priority 2000, dated 2006).

Series [1] in a line: Methotrexate encapsulation by reverse phase evaporation (direct sequestration) and leakage. It counts as physicochemical.
A short description of series [2]: in vitro. To be noted: BEND-3 endothelial cells expressing VEGF receptor.
Protocol: Bovine endothelial cells (BEND-3) expressing vascular endothelial growth factor (VEGF) receptor were incubated (37° C., 6 hours) in the growth medium containing 0.03–90 microgram/mL of the free (i.e. non-encapsulated) vinorelbine, or vinorelbine encapsulated in the Ni-NTA-PEG-DSPE liposomes with or without 0.02 mg/niL of the intemalizing anti-VEGER scFv antibody 4G7 having a hexahistidine tag and a terminal cysteine group. The cells were post-incubated in the growth medium without the drug for another 72 hours, and the viability of the cells was determined by a conventional tetrasolium (MTT) assay.

SMILES strings stand for the structures. In brackets after ≈: the same amount, converted by molar mass.

Turning to `CN(Cc1cnc2nc(N)nc(N)c2n1)c1ccc(C(=O)N[C@@H](CCC(=O)O)C(=O)O)cc1` [free methotrexate, methotrexate], the MTX loading efficiency in series [1] was 28.7–29.5%. For the same compound, in series [2], the IC50 at 6 h was above 90 µg/mL.
On to `CCC1=C[C@@H]2CN(C1)Cc1c([nH]c3ccccc13)[C@@](C(=O)OC)(c1cc3c(cc1OC)N(C)[C@H]1[C@@](O)(C(=O)OC)[C@H](OC(C)=O)[C@]4(CC)C=CCN5CC[C@]31[C@@H]54)C2` [free vinorelbine, vinorelbine], for which half-maximal inhibition in series [2] (IC50 at 6 h) required 0.67 µg/mL (≈ 0.86 µM).

As usually defined, the IC50 is the concentration needed to halve the response being measured.
